Test results reported in PubChem BioAssay (NCI).
Several values for one entry are separate records, joined by “and”; a condition that tells them apart may be missing. Equal values may be shown once.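 Five concentrations, 48 hours, 96-well plates. Abbreviation: GI50, concentration required for 50% inhibition of growth. TGI marks complete inhibition of growth.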

Key:
Assay in all cases: NCI anticancer screen, dose series, 48 h
OVCAR-8 ovarian = tested on: OVCAR-8 ovarian
EKVX NSCLC = tested on: EKVX NSCLC
A549 NSCLC = tested on: A549 NSCLC
HT29 colon = tested on: HT29 colon
TK-10 renal = tested on: TK-10 renal
BT-549 breast = tested on: BT-549 breast
OVCAR-5 ovarian = tested on: OVCAR-5 ovarian
SF-539 CNS = tested on: SF-539 CNS
DU-145 prostate = tested on: DU-145 prostate
HOP-92 NSCLC = tested on: HOP-92 NSCLC

| SMILES | GI50 (OVCAR-8 ovarian) [µM] | TGI (OVCAR-8 ovarian) [µM] | GI50 (EKVX NSCLC) | TGI (EKVX NSCLC) | GI50 (A549 NSCLC) [µM] | TGI (A549 NSCLC) | GI50 (HT29 colon) | TGI (HT29 colon) | GI50 (TK-10 renal) [µM] | TGI (TK-10 renal) | GI50 (BT-549 breast) [µM] | TGI (BT-549 breast) | GI50 (OVCAR-5 ovarian) [µM] | TGI (OVCAR-5 ovarian) | GI50 (SF-539 CNS) | TGI (SF-539 CNS) | GI50 (DU-145 prostate) | TGI (DU-145 prostate) | GI50 (HOP-92 NSCLC) [µM] | TGI (HOP-92 NSCLC) |
| --- | --- | --- | --- | --- | --- | --- | --- | --- | --- | --- | --- | --- | --- | --- | --- | --- | --- | --- | --- | --- |
| c1ccc(CNCCN(CCNCc2ccccn2)Cc2ccc3ccccc3c2)nc1 | 2.27 | 6.29 | 1.71 µM | 7.58 µM | 2.33 | 5.38 µM | 3.04 µM | 7.93 µM | 1.36 | 6.58 µM | 2.87 | 10.9 µM | 1.63 | 4.03 µM | 1.64 µM | 3.1 µM | 2.79 µM | 10.3 µM | 1.79 | 4.64 µM |
| O=[N+]([O-])c1cc([N+](=O)[O-])c(Nn2c3ccccc3c3ccccc32)c([N+](=O)[O-])c1 | 0.371 |  | 0.328 µM | 7.64 µM | 0.334 | 14.3 µM and > 100 µM | 0.323 µM | 8.43 µM and 3.43 µM | 0.315 | 11 µM and > 100 µM | 0.278 | 7.32 µM and 1.23 µM | 0.338 | 26.7 µM and 13.5 µM | 0.335 µM | 15.8 µM and 5.1 µM | 0.442 µM | 20.1 µM and 18.7 µM |  | 2.81 µM |
| COc1cc(C2c3cc4c(cc3C(OC(=O)C[n+]3ccccc3)C3COC(=O)C23)OCO4)cc(OC)c1OC (centres undefined) | < 0.021 | > 100 | 0.436 µM | > 100 µM | < 0.0197 | > 100 µM | < 0.01 µM | > 100 µM | > 100 | > 100 µM | < 0.01 | > 100 µM |  | > 100 µM | < 0.0154 µM | < 0.0278 µM | < 0.0184 µM | > 100 µM | < 0.013 | 2.74 µM |
| C#CCN(c1ccc(C(=O)N[C@@H](CCC(=O)N[C@H](CCC(=O)O)C(=O)O)C(=O)O)cc1)C1CCc2cc3nc(CO)[nH]c(=O)c3cc21 (some centres undefined) | 5.81 | > 100 | > 100 µM | > 100 µM | 5.41 | > 100 µM | > 100 µM | > 100 µM | > 100 | > 100 µM | 58 | > 100 µM | > 100 | > 100 µM | 4.38 µM | > 100 µM | 16.5 µM | > 100 µM | > 53.4 | > 100 µM |
| CC[C@@H](C)/C=C(C)/C=C/C(=O)c1c(O)c(-c2ccc(O)cc2)cn(O)c1=O | 0.341 | 12 | 1.6 µM | 13.1 µM | 1.31 | 12 µM | 3.22 µM | 11.4 µM | 0.524 | 15.3 µM | 0.487 | 16.1 µM | 2.71 | 20.8 µM | 0.369 µM | 5.83 µM | 0.496 µM | 13.8 µM | 0.137 | 1.86 µM |
| COc1cc(C(=O)c2cnc(-c3cccc4[nH]ccc34)[nH]2)cc(OC)c1OC |  | 48.2 |  | > 100 µM |  | > 100 µM | 0.0493 µM and < 0.01 µM | < 0.01 µM | < 0.01 | 66.6 µM |  | 22 µM |  | > 100 µM | 0.0278 µM and < 0.01 µM |  | 0.0996 µM and < 0.01 µM | > 100 µM | 1.5 | 48.1 µM |
| NS(=O)(=O)c1cc(C(=O)O)c(O)c2ccccc12 |  | > 100 |  | > 100 µM |  | > 100 µM |  | > 100 µM |  | > 100 µM |  | > 100 µM |  | > 100 µM |  | > 100 µM |  | > 100 µM |  | > 100 µM |
| CCc1nc2ccc(N=Nc3c(O)ccc4ccccc34)cc2[nH]1 |  | 21.6 |  | 36.1 µM |  | 55.8 µM |  | 44.1 µM |  | 32.6 µM |  | 36.2 µM |  | 34.9 µM |  | 35.4 µM |  | 31.2 µM |  | 42.7 µM |
| CO[C@H]1CC(O[C@@H]2/C(C)=C/C[C@@H]3C[C@@H](C[C@]4(CC[C@H](C)[C@@H](C5CCCCC5)O4)O3)OC(=O)[C@@H]3C=C(C)/C(=N/O)[C@H]4OC/C(=C\C=C\[C@@H]2C)[C@]43O)O[C@@H](C)C1O (some centres undefined) | 0.962 | 2.41 | 0.951 µM | 2.64 µM | 0.935 | 2.66 µM | 0.966 µM | 2.05 µM | 1.13 | 2.71 µM | 1.17 | 3.41 µM | 0.917 | 2.02 µM | 0.948 µM | 1.93 µM | 0.833 µM | 1.62 µM | 0.648 | 1.57 µM |
| O=C(c1ccc(Cl)cc1)C(O)c1ccc(Cl)cc1 (centres undefined) |  | > 100 |  | > 100 µM |  | > 100 µM |  | > 100 µM |  | > 100 µM |  | > 100 µM |  | > 100 µM |  | > 100 µM |  | > 100 µM |  | > 100 µM |
| Cc1cc(Nc2nc(N[C@@H](C)c3ncc(F)cn3)ncc2Cl)n[nH]1 | 30.5 | > 100 | 56.8 µM | > 100 µM | 29.5 | > 100 µM | 27.8 µM | > 100 µM | 30 | > 100 µM | 9.81 | > 100 µM | 38.4 | > 100 µM | 14.9 µM | 58 µM | 40.8 µM | > 100 µM | 10.1 | 42.4 µM |
| Clc1ccccc1-c1nnc2c(Cc3ccccc3)nc3ccccc3n12 | 7.21 | > 100 | 12.7 µM | > 100 µM | 8.78 | > 100 µM | 8.71 µM | > 100 µM | 54 | > 100 µM | > 25.9 | > 100 µM | > 100 | > 100 µM | 24.2 µM | > 100 µM | 55.1 µM | > 100 µM | 3.45 | 41.8 µM |
| Cc1cc(-c2cc(O)ccc2Cl)cc2nnc(Nc3ccc(OCCN4CCCC4)cc3)nc12 | 0.705 | 1.56 | 1.57 µM | 3.27 µM | 1.36 | 3.48 µM | 1.93 µM | 3.91 µM | 1.39 | 3 µM | 1.45 | 3.16 µM | 1.65 | 3.14 µM | 1.04 µM | 2.32 µM | 0.206 µM | 0.419 µM | 1.1 | 2.59 µM |
| O=C1/C(=C/c2ccc(Cl)cc2)CNC/C1=C\c1ccc(Cl)cc1 |  |  | 5.74 µM and 2.29 µM | 21.2 µM and 6.75 µM |  | > 100 µM and 27.4 µM | 0.254 µM and 1.28 µM | 0.697 µM and 3.38 µM |  | 25.9 µM and 12.3 µM |  | 8.41 µM |  | 13.4 µM |  | 3.2 µM and 4.11 µM |  | 7.57 µM |  | > 26.2 µM |
| COC(=O)c1oc2c(C(=O)/C=C/c3ccc(OC)cc3)c(OCCN(C)C)ccc2c1C | 4.96 | 21.5 | 6.4 µM | 19 µM | 5.08 | 23 µM | 3.72 µM | 9.83 µM | 9.79 | 23 µM | 4.88 | 16 µM | 15.8 | 32.9 µM | 11.3 µM | 24.1 µM | 2.82 µM | 10.7 µM | 5.91 | 19.8 µM |
| CCN(Cc1cccc(Cl)c1)c1ccc(CO)c(Cl)c1 | 10.5 | 23.3 | 12.4 µM | 27 µM | 2.47 | 17 µM | 3.61 µM | 14.6 µM | 0.0588 | 0.321 µM | 11.5 | 24.3 µM | 0.222 | 1.25 µM | 15.9 µM | 30.8 µM | 11.6 µM | 24.8 µM | 1.29 | 10.7 µM |
| CCCCCC/C=C\CCCCCCCCCC1=C(CN2CCN(C)CC2)C(=O)C=C(OC)C1=O |  | 17 |  | 27.9 µM |  | 28.6 µM |  | 23.9 µM |  | 9.4 µM |  | 15.5 µM |  | 28.8 µM |  | 40.1 µM |  | 26.2 µM |  | 6.26 µM |
| C/C(=C(\c1ccc(OCCN2CCCCCC2)cc1)c1ccc(OC(=O)c2ccccc2)cc1)c1ccc(Cl)cc1 | 5.15 | 10.5 | 4.97 µM | 13.9 µM | 4.16 | 10.9 µM | 1.28 µM | 4.57 µM | 5.14 | 10.8 µM | 4.56 | 8.99 µM | 3.93 | 8.82 µM | 3.79 µM | 8.31 µM | 5.41 µM | 11.3 µM | 3.57 | 7.8 µM |
| COc1ccc([C@@]23Oc4cc(OC)cc(OC)c4[C@]2(O)[C@H](O)[C@H](C(N)=O)[C@H]3c2ccccc2)cc1 | < 0.0122 |  |  | 0.108 µM and 0.158 µM |  |  |  | 0.0659 µM and 0.0515 µM | 0.0278 | 0.101 µM and 0.0367 µM |  | 0.0847 µM and < 0.0226 µM |  | 0.074 µM and < 0.0291 µM |  | 0.0193 µM |  | 0.105 µM and < 0.0219 µM | < 0.0153 | 0.317 µM and 0.0541 µM |
| Cc1cn(Cc2ccc(C34CC5CC(CC(C5)C3)C4)c(O)c2)c(=O)[nH]c1=O |  |  | 8.21 µM | 29.1 µM |  |  | 11.1 µM | 26.5 µM | 14.7 | 32.2 µM | 8.7 | 20.8 µM | 16.1 | 29.8 µM | 9.45 µM | 23 µM | 13.7 µM | 26.6 µM | 14.4 | 29.5 µM |
